The source of these data is ChEMBL document CHEMBL1149193, “Selective optimization of side activities: another way for drug discovery” (J Med Chem, 2004).

The target in assay [1] is T1, Alpha-1A adrenergic receptor (Homo sapiens, UniProt P35348).
T1 sequence (P35348 whole entry): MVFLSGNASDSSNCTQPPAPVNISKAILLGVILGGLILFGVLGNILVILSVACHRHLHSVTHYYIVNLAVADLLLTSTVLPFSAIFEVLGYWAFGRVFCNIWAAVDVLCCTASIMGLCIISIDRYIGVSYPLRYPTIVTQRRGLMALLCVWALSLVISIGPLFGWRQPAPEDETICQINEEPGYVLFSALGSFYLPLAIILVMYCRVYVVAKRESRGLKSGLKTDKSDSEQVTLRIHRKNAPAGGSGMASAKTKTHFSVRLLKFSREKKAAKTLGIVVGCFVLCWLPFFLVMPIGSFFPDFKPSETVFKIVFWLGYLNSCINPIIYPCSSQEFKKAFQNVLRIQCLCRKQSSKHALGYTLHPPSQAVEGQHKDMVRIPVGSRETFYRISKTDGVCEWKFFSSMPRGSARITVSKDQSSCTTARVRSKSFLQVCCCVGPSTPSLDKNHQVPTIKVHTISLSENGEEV
Description: Binding affinity towards recombinant human alpha-1A adrenergic receptor

Another assay concerns the target D(3) dopamine receptor (Homo sapiens, UniProt P35462).
Another assay deals with T2, D(4) dopamine receptor (Homo sapiens, UniProt P21917).
T2 sequence (P21917 whole entry): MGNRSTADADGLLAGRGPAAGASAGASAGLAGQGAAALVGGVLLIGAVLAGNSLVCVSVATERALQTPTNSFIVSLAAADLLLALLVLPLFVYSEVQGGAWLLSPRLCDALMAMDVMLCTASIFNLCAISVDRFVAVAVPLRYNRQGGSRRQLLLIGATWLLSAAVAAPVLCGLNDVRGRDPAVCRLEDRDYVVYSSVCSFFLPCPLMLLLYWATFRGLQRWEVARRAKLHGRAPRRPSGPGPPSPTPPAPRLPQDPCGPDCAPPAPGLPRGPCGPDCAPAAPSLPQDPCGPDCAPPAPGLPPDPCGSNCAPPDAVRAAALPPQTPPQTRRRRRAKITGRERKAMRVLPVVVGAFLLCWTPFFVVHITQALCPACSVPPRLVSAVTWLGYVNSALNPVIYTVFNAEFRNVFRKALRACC

The species entered for a further assay is Mus musculus. Briefly: animal or person. The settings on record: sc. In kind it is functional.

Broadly, the Ki is the dissociation constant of the complex between target and ligand, obtained from inhibition or displacement. Higher therefore signals a looser hold on the target. What is called ED50 is the dose at which the effect has come halfway, by size or by number of responders.

D(3) dopamine receptor, sequence (P35462 whole entry): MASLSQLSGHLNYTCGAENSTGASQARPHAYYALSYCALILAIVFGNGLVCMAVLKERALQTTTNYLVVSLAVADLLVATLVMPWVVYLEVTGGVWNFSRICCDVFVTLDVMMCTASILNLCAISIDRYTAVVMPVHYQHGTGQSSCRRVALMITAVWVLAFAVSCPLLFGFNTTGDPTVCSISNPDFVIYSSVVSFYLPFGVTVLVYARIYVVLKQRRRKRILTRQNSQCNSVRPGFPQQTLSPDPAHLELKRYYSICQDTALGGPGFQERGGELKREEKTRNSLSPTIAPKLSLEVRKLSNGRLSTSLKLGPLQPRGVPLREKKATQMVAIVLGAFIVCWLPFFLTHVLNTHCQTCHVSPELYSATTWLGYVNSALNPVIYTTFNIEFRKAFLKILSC
Description for D(3) dopamine receptor: Binding affinity against Dopamine receptor D3
Description for D(4) dopamine receptor: Binding affinity towards human Dopamine receptor D4
Description for Mus musculus: In vivo inhibitory activity for apomorphine induced climbing in mice, sc

In turn, `COCC1=C(C(=O)OC)[C@H](c2ccc(F)c(F)c2)C(C(=O)NCCCN2CCC(c3ccccn3)CC2)C(=O)N1` (some centres undefined) returned a Ki in assay [1] of 0.36 nM. In other words, the sub-nanomolar range.
In the case of `COc1cc(NC(=O)C2CC2)c(Cl)cc1C(=O)NC1CCN(Cc2ccccc2)C1` (centres undefined), the values for the Ki on D(3) dopamine receptor and at D(4) dopamine receptor were 21 nM and 2.1 nM, respectively. This compound displayed an ED50 in the assay filed under Mus musculus of 0.32 mg/kg.
